Assay [1] concerns the target T1, human histamine H4 receptor (Homo sapiens, UniProt Q9H3N8).
T1 construct: purchased PerkinElmer Inc; host or cells: CHO-K1
Briefly: Evaluation of Human H4 Receptor Affinity ([3H]histamine binding). The following applies: inhibition constant Ki, CHO-K1 membrane preparation, read-out: Evaluation of H4 Receptor Affinity. The protocol:
Test Example 2: Evaluation of Human H4 Receptor Affinity
Membrane preparation from recombinant CHO-K1 cell expressing the human histamine H4 receptor (PerkinElmer Inc.), radiolabeled ligand 8.2 nM [^3H]histamine (PerkinElmer Inc.), and compounds dissolved in DMSO were reacted at 25° C. for 90 minutes in a buffering solution containing 50 mM tris-hydrochloric acid, pH 7.4, and 1.25 mM EDTA on a 96 well plate, followed by filtration using a GF/B filter (PerkinElmer Inc.) pretreated with 0.3% polyethylenimine. The residue was washed four times with a buffering solution of 50 mM tris-hydrochloric acid, pH 7.4. Thereafter, a scintillation cocktail (MicroScint 20: PerkinElmer Inc.) was added to the GF/B filter, and the radioactivity of each well was measured using a liquid scintillation counter for 96-well (TopCount: PerkinElmer Inc.). The non-specific binding was evaluated in the presence of 1.0 μM histamine. The inhibition constant Ki was calculated from the 50% inhibitory concentration (IC50 value) obtained in each test and the Kd value (5.7 nM) unique to this assay system, according to the Cheng-Prusoff equation.

Assay [2] deals with human histamine H1 receptor (Homo sapiens, UniProt P35367). As to the kind of experiment: Evaluation of Human H1 Receptor Affinity ([3H]pyrilamine binding). Also noted: purchased PerkinElmer Inc; host or cells: CHO-K1. The following applies: inhibition constant Ki, CHO-K1 membrane preparation. As for the experimental part:
Test Example 1: Evaluation of Human H1 Receptor Affinity
Membrane preparation from recombinant CHO-K1 cell expressing the human histamine H1 receptor (PerkinElmer Inc.), radiolabeled ligand 1.2 nM [^3H]pyrilamine (PerkinElmer Inc.), and test compounds dissolved in DMSO were reacted at 25° C. for 3 hours in a buffering solution containing 50 mM tris-hydrochloric acid, pH 7.4, and 5 mM magnesium chloride on a 96 well plate, followed by filtration using a GF/B filter (PerkinElmer Inc.) pretreated with 0.3% polyethylenimine. The residue was washed four times with a buffering solution of 50 mM tris-hydrochloric acid, pH 7.4. Thereafter, a scintillation cocktail (MicroScint 20: PerkinElmer Inc.) was added to the GF/B filter, and the radioactivity of each well was measured using a liquid scintillation counter for 96-well (TopCount: PerkinElmer Inc.). The non-specific binding was evaluated in the presence of 1.0 μM pyrilamine. The inhibition constant Ki was calculated from the 50% inhibitory concentration (IC50 value) obtained in each test and the Kd value (1.1 nM) unique to this assay system, according to the Cheng-Prusoff equation.

We go through 20 compounds from US20190047966A1, “NOVEL COMPOUND AND PHARMACOLOGICALLY ACCEPTABLE SALT THEREOF” (MEIJI SEIKA PHARMA CO., LTD., priority 2016, published 2019).

Counter-ions that a name gives are not always drawn.

Sequence of human histamine H1 receptor (P35367 whole entry): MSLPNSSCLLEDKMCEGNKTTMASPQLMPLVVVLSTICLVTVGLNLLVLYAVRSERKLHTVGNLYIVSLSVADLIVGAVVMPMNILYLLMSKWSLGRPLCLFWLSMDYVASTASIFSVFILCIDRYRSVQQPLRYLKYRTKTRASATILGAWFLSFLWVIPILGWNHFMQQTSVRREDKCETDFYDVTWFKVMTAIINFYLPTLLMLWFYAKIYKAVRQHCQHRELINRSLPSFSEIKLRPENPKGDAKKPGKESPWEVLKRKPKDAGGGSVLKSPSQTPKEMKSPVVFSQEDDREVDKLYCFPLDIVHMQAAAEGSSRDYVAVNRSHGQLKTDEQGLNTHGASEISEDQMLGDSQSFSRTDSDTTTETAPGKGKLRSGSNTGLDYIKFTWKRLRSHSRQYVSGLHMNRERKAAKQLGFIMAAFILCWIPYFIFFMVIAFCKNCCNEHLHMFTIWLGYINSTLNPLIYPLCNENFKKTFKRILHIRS
T1 sequence (Q9H3N8 whole entry): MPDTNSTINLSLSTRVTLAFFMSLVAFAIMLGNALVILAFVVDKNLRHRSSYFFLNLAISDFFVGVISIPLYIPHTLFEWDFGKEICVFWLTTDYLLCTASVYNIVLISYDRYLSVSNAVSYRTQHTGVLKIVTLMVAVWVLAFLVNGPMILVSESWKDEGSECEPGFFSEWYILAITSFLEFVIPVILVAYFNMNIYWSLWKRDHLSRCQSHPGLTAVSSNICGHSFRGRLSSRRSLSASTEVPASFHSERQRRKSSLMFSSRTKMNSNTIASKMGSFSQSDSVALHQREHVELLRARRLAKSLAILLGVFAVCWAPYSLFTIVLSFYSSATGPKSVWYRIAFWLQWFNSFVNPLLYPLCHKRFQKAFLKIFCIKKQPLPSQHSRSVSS

Regarding `Nc1nc2c(c(N3CCN(CCOC4CC5C(C4)C5C(=O)O)CC3)n1)CCc1cc(OCc3ccc(OC(F)(F)F)cc3)ccc1-2` (mixture of isomers) [Example 35, 3-(2-(4-(2-amino-8-((4-(trifluoromethoxy)benzyl)oxy)-5,6-dihydrobenzo[h]quinazolin-4-yl)piperazin-1-yl)ethoxy)bicyclo[3.1.0]hexane-6-carboxylic acid], the Ki in assay [1] and in assay [2] was less than 100 nM each time.
As for `COC(=O)[C@@H]1CC[C@H](COCCN2CCN(c3nc(N)nc4c3CCc3cc(OCc5ccc(Cl)cc5)ccc3-4)CC2)C1` (relative stereo) [153(a), methyl cis-3-((2-(4-(2-amino-8-((4-chlorobenzyl)oxy)-5,6-dihydrobenzo[h]quinazolin-4-yl)piperazin-1-yl)ethoxy)methyl)cyclopentane-l-carboxylate], the Ki in assay [1] and in assay [2] was less than 100 nM in each case.
For `Nc1nc2c(c(N3CCN(CCOC[C@H]4CC[C@@H](C(=O)O)C4)CC3)n1)CCc1cc(OCc3ccc(Cl)cc3)ccc1-2` (relative stereo) [153(b), cis-3-((2-(4-(2-amino-8-((4-chlorobenzyl)oxy)-5,6-dihydrobenzo[h]quinazolin-4-yl)piperazin-1-yl)ethoxy)methyl)cyclopentane-l-carboxylic acid], the Ki in assay [1] and in assay [2] was less than 100 nM each time.
For the compound `Nc1nc2c(c(N3CCN(CCOC[C@H]4CC[C@@H](C(=O)O)C4)CC3)n1)CCc1cc(OCc3ccc(OC(F)(F)F)cc3)ccc1-2` (relative stereo) [Example 155], the Ki in assay [1] and in assay [2] was less than 100 nM throughout.
For `Nc1nc2c(c(N3CCN(CCOC[C@@H]4CC[C@H](C(=O)O)O4)CC3)n1)CCc1cc(OCc3ccc(Cl)cc3)ccc1-2` (relative stereo) [Example 171, cis-5-((2-(4-(2-amino-8-((4-chlorobenzyl)oxy)-5,6-dihydrobenzo[h]quinazolin-4-yl)piperazin-1-yl)ethoxy)methyl)tetrahydrofuran-2-carboxylic acid], the Ki in assay [1] is 100 to 500 nM; in assay [2], less than 100 nM.
For `Nc1nc2c(c(N3CCN(CCOC[C@H]4C[C@@H](C(=O)O)O4)CC3)n1)CCc1cc(OCc3ccc(OC(F)(F)F)cc3)ccc1-2` (relative stereo) [Example 176], the Ki was 100 to 500 nM in assay [1] and less than 100 nM in assay [2].
On the same counts, the results for `Nc1nc2c(c(N3CCN(CCOC[C@H]4C[C@H](C(=O)O)O4)CC3)n1)CCc1cc(OCc3ccc(OC(F)(F)F)cc3)ccc1-2` (relative stereo) [Example 177, trans-4-((2-(4-(2-amino-8-((4-(trifluoromethoxy)benzyl)oxy)-5,6-dihydrobenzo[h]quinazolin-4-yl)piperazin-1-yl)ethoxy)methyl)oxetane-2-carboxylic acid] are 100 to 500 nM and less than 100 nM.
In the case of `Nc1nc2c(c(N3CCN(CCOC[C@@H]4CCC[C@H](C(=O)O)C4)CC3)n1)CCc1cc(OCc3ccc(OC(F)(F)F)cc3)ccc1-2` (relative stereo) [Example 186, cis-3-((2-(4-(2-amino-8-((4-(trifluoromethoxy)benzyl)oxy)-5,6-dihydrobenzo[h]quinazolin-4-yl)piperazin-1-yl)ethoxy)methyl)cyclohexane-1-carboxylic acid dihydrochloride], the Ki in assay [1] and in assay [2] was less than 100 nM in each case.
For `CC(Oc1ccc2c(c1)CCc1c-2nc(N)nc1N1CCN(CCO[C@H]2C[C@@H](C(=O)O)C2)CC1)c1ccc(OC(F)(F)F)cc1` (relative stereo) [Example 209, cis-3-(2-(4-(2-amino-8-(1-(4-(trifluoromethoxy)phenyl)ethoxy)-5,6-dihydrobenzo[h]quinazolin-4-yl)piperazin-1-yl)ethoxy)cyclobutane-1-carboxylic acid], the Ki in assay [1] and in assay [2] was less than 100 nM throughout.
On to `COC(=O)COCCOCCN1CCN(c2nc(N)nc3c2CCc2cc(OCc4ccc(Cl)cc4)ccc2-3)CC1` [11(a), methyl 2-(2-(2-(4-(2-amino-8-((4-chlorobenzyl)oxy)-5,6-dihydrobenzo[h]quinazolin-4-yl)piperazin-1-yl)ethoxy)ethoxy)acetate], for which the Ki in assay [1] and in assay [2] was less than 100 nM throughout.
With `COC(=O)c1cccc(COCCN2CCN(c3nc(N)nc4c3CCc3cc(OCc5ccc(Cl)cc5)ccc3-4)CC2)c1` [15(a), methyl 3-((2-(4-(2-amino-8-((4-chlorobenzyl)oxy)-5,6-dihydrobenzo[h]quinazolin-4-yl)piperazin-1-yl)ethoxy)methyl)benzoate], the Ki in assay [1] is 100 to 500 nM; in assay [2], less than 100 nM.
On the same counts, the results for `COC(=O)c1cccc(COCCN2CCN(c3nc(N)nc4c3CCc3cc(OCc5ccc(OC(F)(F)F)cc5)ccc3-4)CC2)c1` [16(a), methyl 3-((2-(4-(2-amino-8-((4-(trifluoromethoxy)benzyl)oxy)-5,6-dihydrobenzo[h]quinazolin-4-yl)piperazin-1-yl)ethoxy)methyl)benzoate] are 100 to 500 nM and less than 100 nM.
As for `COC(=O)c1cc(COCCN2CCN(c3nc(N)nc4c3CCc3cc(OCc5ccc(Cl)cc5)ccc3-4)CC2)ccc1F` [17(a), methyl 5-((2-(4-(2-amino-8-((4-chlorobenzyl)oxy)-5,6-dihydrobenzo[h]quinazolin-4-yl)piperazin-1-yl)ethoxy)methyl)-2-fluorobenzoate], the Ki in assay [1] and in assay [2] was less than 100 nM in each case.
For the compound `COC(=O)c1cccc(COCCN2CCN(c3nc(N)nc4c3CCc3cc(OCc5ccc(Cl)cc5)ccc3-4)CC2)n1` [18(a), methyl 6-((2-(4-(2-amino-8-((4-chlorobenzyl)oxy)-5,6-dihydrobenzo[h]quinazolin-4-yl)piperazin-1-yl)ethoxy)methyl)picolinate], the Ki in assay [1] and in assay [2] was less than 100 nM each time.
Turning to `COC(=O)c1ccc(OCCN2CCN(c3nc(N)nc4c3CCc3cc(OCc5ccc(Cl)cc5)ccc3-4)CC2)cc1` [19(a), methyl 4-(2-(4-(2-amino-8-((4-chlorobenzyl)oxy)-5,6-dihydrobenzo[h]quinazolin-4-yl)piperazin-1-yl)ethoxy)benzoate], the Ki in assay [1] and in assay [2] was 100 to 500 nM in each case.
As to `COC(=O)c1ccc(COCCN2CCN(c3nc(N)nc4c3CCc3cc(OCc5ccc(OC(F)(F)F)cc5)ccc3-4)CC2)o1` [20(a), methyl 5-((2-(4-(2-amino-8-((4-(trifluoromethoxy)benzyl)oxy)-5,6-dihydrobenzo[h]quinazolin-4-yl)piperazin-1-yl)ethoxy)methyl)furan-2-carboxylate], the results for the Ki in assay [1] and in assay [2] were 100 to 500 nM and less than 100 nM, respectively.
`CCOC(=O)[C@]1(C)C[C@@H](OCCN2CCN(c3nc(N)nc4c3CCc3cc(OCc5ccc(Cl)cc5)ccc3-4)CC2)C1` [25(a), ethyl trans-3-(2-(4-(2-amino-8-((4-chlorobenzyl)oxy)-5,6-dihydrobenzo[h]quinazolin-4-yl)piperazin-1-yl)ethoxy)-1-methylcyclobutane-1-carboxylate]: the Ki in assay [1] was 100 to 500 nM; in assay [2], less than 100 nM.
On the same counts, the results for `C[C@]1(C(=O)O)C[C@H](OCCN2CCN(c3nc(N)nc4c3CCc3cc(OCc5ccc(Cl)cc5)ccc3-4)CC2)C1` [25(b), trans-3-(2-(4-(2-amino-8-((4-chlorobenzyl)oxy)-5,6-dihydrobenzo[h]quinazolin-4-yl)piperazin-1-yl)ethoxy)-1-methylcyclobutane-1-carboxylic acid] are less than 100 nM and less than 100 nM.
For `CCOC(=O)[C@]1(C)C[C@H](OCCN2CCN(c3nc(N)nc4c3CCc3cc(OCc5ccc(Cl)cc5)ccc3-4)CC2)C1` [26(a), ethyl cis-3-(2-(4-(2-amino-8-((4-chlorobenzyl)oxy)-5,6-dihydrobenzo[h]quinazolin-4-yl)piperazin-1-yl)ethoxy)-1-methylcyclobutane-1-carboxylate] the same measures were 100 to 500 nM and less than 100 nM.
On to `C[C@]1(C(=O)O)C[C@@H](OCCN2CCN(c3nc(N)nc4c3CCc3cc(OCc5ccc(Cl)cc5)ccc3-4)CC2)C1` [26(b), cis-3-(2-(4-(2-amino-8-((4-chlorobenzyl)oxy)-5,6-dihydrobenzo[h]quinazolin-4-yl)piperazin-1-yl)ethoxy)-1-methylcyclobutane-1-carboxylic acid], for which the figures for the Ki in assay [1] and in assay [2] were 100 to 500 nM and less than 100 nM, respectively.
